Data taken from ChEMBL document CHEMBL6182898, “Design, synthesis and bioevaluation of novel hydrazide derivatives as enhancers of immunotherapy and DNA-damage response in antitumor therapy” (Eur J Med Chem, 2025).
The source made the active and inactive calls. No cut-off for these calls is given here.

How the values were obtained:
B16-F10 [1] = experiment: Anti-migratory activity in mouse B16-F10 cells at 1.25 to 5 uM measured after 36 hrs by wound healing assay relative to control; assay type: functional; details: dose 1.25-5 µM
B16-F10 [2] = experiment: Induction of apoptosis in mouse B16-F10 cells incubated for 48 hrs by Annexin V-FITC/PI staining based flow cytometry; assay type: functional, cell-based; details: dose 2.5-10 µM
[3] = molecular target: T1, Histone deacetylase 3 (Mus musculus) (UniProt O88895); experiment: Inhibition of HDAC3 in mouse B16-F10 cells assessed as increase in Ac-H3 level at 2.5 uM incubated for 24 hrs by immunofluorescence based analysis; assay type: cell-based
T1 sequence (whole entry): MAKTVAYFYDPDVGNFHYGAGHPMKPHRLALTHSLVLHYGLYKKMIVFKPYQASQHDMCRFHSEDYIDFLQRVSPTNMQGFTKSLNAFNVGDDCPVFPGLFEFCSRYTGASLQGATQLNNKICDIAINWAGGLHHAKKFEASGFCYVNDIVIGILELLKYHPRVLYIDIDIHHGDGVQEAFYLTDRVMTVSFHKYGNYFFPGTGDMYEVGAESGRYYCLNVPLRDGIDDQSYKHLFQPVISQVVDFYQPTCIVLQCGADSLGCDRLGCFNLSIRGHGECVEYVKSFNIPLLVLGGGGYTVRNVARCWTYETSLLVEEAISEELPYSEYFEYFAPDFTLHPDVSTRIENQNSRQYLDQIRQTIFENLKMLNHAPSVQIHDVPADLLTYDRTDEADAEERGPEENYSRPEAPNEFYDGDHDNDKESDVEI

HCT-116 [4] = experiment: Antiproliferative activity against human HCT-116 cells incubated for 72 hrs by MTT assay; assay type: functional, cell-based; details: HCT-116, 72 h
Histone deacetylase 3 = Histone deacetylase 3 (Homo sapiens, UniProt O15379); experiment: Inhibition of HDAC3 (unknown origin)
4T1 [5] = experiment: cells; assay type: functional; details: Mus musculus, time 72 hrs
B16-F10 [6] = experiment: Induction of cell cycle arrest in mouse B16-F10 cells assessed as cell accumulation incubated for 24 hrs by PI staining based flow cytometry; assay type: functional; details: dose 2.5-10 µM
[7] = molecular target: T1, Histone deacetylase 3 (Mus musculus); experiment: Inhibition of HDAC3 in mouse B16-F10 cells assessed as increase in Ac-H3 level incubated for 24 hrs by Western blot analysis; assay type: cell-based; details: dose 2.5-10 µM
B16-F10 [8] = experiment: Inhibition of cell invasion in mouse B16-F10 cells at 5 uM by transwell assay relative to control; assay type: functional
K562 = experiment: cells; assay type: functional; details: Homo sapiens, time 72 hrs
B16-F10 [9] = experiment: Induction of antitumor immunity in mouse B16-F10 cells assessed as increase in IFN-gamma level incubated for 24 hrs by Western blot analysis; assay type: functional, cell-based; details: dose 2.5-10 µM
B16-F10 [10] = experiment: Inhibition of cell migration in mouse B16-F10 cells at 5 uM by transwell assay relative to control; assay type: functional
Histone deacetylase 8 = molecular target: T2, Histone deacetylase 8 (Homo sapiens, UniProt Q9BY41); experiment: Inhibition of HDAC8 (unknown origin)
T2 sequence (Q9BY41 whole entry): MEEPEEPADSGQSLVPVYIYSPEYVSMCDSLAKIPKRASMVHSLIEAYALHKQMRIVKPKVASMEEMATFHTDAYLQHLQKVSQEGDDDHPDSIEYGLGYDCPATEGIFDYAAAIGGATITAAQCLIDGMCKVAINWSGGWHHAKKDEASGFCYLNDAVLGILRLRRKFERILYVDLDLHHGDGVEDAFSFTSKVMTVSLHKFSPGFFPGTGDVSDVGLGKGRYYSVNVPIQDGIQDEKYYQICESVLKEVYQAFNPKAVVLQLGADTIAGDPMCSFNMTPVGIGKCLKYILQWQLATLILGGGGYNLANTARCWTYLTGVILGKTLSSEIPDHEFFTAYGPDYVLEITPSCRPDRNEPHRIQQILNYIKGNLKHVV

[11] = Antiproliferative activity against human HK-2 cells incubated for 72 hrs by MTT assay
[12] = molecular target: T1, Histone deacetylase 3 (Mus musculus); experiment: Inhibition of HDAC3 in mouse B16-F10 cells assessed as reduction in PD-L1 level at 2.5 uM incubated for 24 hrs by immunofluorescence based analysis; assay type: cell-based
HCT-116 [13] = experiment: cells; assay type: functional; details: Homo sapiens, time 72 hrs
B16-F10 [14] = experiment: Upregulation of Ac-alpha-tubulin level in mouse B16-F10 cells at 2.5 to 10 uM incubated for 24 hrs by Western blot analysis; assay type: functional, cell-based; details: dose 2.5-10 µM
B16-F10 [15] = experiment: cells; assay type: functional; details: Mus musculus, time 72 hrs
SK-OV-3 = experiment: cells; assay type: functional; details: Homo sapiens, time 72 hrs
4T1 [16] = experiment: Antiproliferative activity against mouse 4T1 cells incubated for 72 hrs by MTT assay; assay type: functional, cell-based; details: 4T1, 72 h
Histone deacetylase 1 = Histone deacetylase 1 (Homo sapiens, UniProt Q13547); experiment: Inhibition of HDAC1 (unknown origin)
B16-F10 [17] = experiment: Induction of antitumor immunity in mouse B16-F10 cells assessed as decrease in NCOR2 level at 2.5 to 10 uM incubated for 24 hrs by Western blot analysis; assay type: functional, cell-based; details: dose 2.5-10 µM

Sequence of Histone deacetylase 1 (Q13547 whole entry): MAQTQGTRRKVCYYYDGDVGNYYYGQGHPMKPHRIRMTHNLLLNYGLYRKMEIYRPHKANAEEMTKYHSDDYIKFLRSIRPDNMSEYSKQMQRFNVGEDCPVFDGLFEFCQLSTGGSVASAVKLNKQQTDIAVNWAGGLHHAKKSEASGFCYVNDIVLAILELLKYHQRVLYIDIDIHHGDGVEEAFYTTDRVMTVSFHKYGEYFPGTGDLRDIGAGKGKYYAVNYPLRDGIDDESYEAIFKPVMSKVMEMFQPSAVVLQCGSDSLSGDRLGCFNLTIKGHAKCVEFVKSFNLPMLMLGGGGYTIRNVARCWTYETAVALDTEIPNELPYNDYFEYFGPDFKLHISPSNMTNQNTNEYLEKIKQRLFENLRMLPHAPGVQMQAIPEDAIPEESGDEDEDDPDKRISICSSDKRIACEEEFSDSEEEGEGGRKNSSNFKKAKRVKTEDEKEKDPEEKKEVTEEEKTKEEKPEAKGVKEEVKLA
Sequence of Histone deacetylase 3 (O15379 whole entry): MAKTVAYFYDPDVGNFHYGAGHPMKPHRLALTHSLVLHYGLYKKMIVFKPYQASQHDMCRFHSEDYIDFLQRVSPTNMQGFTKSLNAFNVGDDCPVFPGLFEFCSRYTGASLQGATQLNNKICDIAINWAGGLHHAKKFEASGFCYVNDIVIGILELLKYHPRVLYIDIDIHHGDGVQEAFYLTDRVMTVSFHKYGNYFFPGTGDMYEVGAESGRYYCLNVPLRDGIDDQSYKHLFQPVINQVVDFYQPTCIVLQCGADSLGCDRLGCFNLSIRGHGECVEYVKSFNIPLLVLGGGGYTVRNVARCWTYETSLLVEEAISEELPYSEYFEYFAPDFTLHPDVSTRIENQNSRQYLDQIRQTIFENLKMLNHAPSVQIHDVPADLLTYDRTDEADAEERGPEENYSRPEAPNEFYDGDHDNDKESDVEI

CCCNNC(=O)CCCCCCNC(=O)c1cnc(-c2ccc(NC(=O)OC(C)(C)C)cc2)s1
Activity (B16-F10 [1]): >80%
Activity (B16-F10 [2]): Dose-dependent-effect; Activity Similar To Vorinostat
inhibition [3]: Active
IC50 (HCT-116 [4]): 3.31 µM
IC50 (Histone deacetylase 3): 0.31 µM
inhibition at 10 µM (4T1 [5]): 33.1%
Activity (B16-F10 [6]): Dose-dependent-effect
inhibition [7]: Dose-dependent-effect
inhibition at 5 µM (B16-F10 [8]): > 70%
inhibition at 10 µM (K562): 73.1%
Activity (B16-F10 [9]): Dose-dependent-effect; Activity Was Similar To Ms-275
inhibition at 5 µM (B16-F10 [10]): > 70%
IC50 (Histone deacetylase 8): > 10 µM
IC50 at 72 h [11]: 11.5 µM
inhibition [12]: Active
inhibition at 10 µM (HCT-116 [13]): 93.6%
Activity (B16-F10 [14]): inactive
inhibition at 10 µM (B16-F10 [15]): 60.7%
inhibition at 10 µM (SK-OV-3): < 50%
IC50 (4T1 [16]): 9.83 µM
IC50 (Histone deacetylase 1): 4.68 µM
Activity (B16-F10 [17]): Active

CCCNNC(=O)c1ccc(NC(=O)c2cnc(-c3ccc(OC(F)(F)F)cc3)s2)cc1
Activity (B16-F10 [1]): >80%
Activity (B16-F10 [2]): Dose-dependent-effect; Activity Similar To Vorinostat
inhibition [3]: Active
IC50 (HCT-116 [4]): 1.67 µM
IC50 (Histone deacetylase 3): 0.4 µM
inhibition at 10 µM (4T1 [5]): 32.8%
Activity (B16-F10 [6]): Dose-dependent-effect
inhibition [7]: Dose-dependent-effect
inhibition at 5 µM (B16-F10 [8]): > 70%
inhibition at 10 µM (K562): 52.6%
Activity (B16-F10 [9]): Dose-dependent-effect; Activity Was Similar To Ms-275
inhibition at 5 µM (B16-F10 [10]): > 70%
IC50 (Histone deacetylase 8): > 10 µM
IC50 at 72 h [11]: 10.9 µM
inhibition [12]: Active
inhibition at 10 µM (HCT-116 [13]): < 50%
Activity (B16-F10 [14]): inactive
inhibition at 10 µM (B16-F10 [15]): 54.7%
inhibition at 10 µM (SK-OV-3): < 50%
IC50 (4T1 [16]): 7.57 µM
IC50 (Histone deacetylase 1): 1.57 µM
Activity (B16-F10 [17]): Active
